The record followed here is patent US9511134B2, “Inducing immune responses to influenza virus using polypeptide and nucleic acid compositions” (priority 2006, dated 2016).

The test system of one test is CD4+ PBMC. The class given is cell-based, human. The following applies: for Human influenza epitope-specific immune response, donor 3501: PBMC rested five days.
A further test concerns the target DRB1*0404 (Homo sapiens, UniProt P01903+P01911, A100R/A169T/F76Y/I96L/K127E/L162R/M171V/N62H/P40V/Q125Y/R42H/S133A/S149N/S66Y/V209L/W38E). The test is described as follows: biochemical. It counts as binding. The note with it: IC50 nM to purified HLA DRB1*0404.
A further test deals with T1, DRB1*0401 (Homo sapiens, UniProt P01903+P01911, A100K/A169T/F76Y/I96L/K127E/L162R/M171V/N62H/P40V/Q125Y/R42H/S133A/S149N/S66Y/V115G/V209L/W38E).
T1 construct: made in house; host or cells: EBV-transformed homozygous human B cell lines, transfected fibroblasts or single-allele 721.221 transfectants
Put plainly: biochemical. It counts as binding. The note with it: read-out: IC50 nM to purified HLA DRB1*0401.

In the next test the target is T2, DRB4*0101 (Homo sapiens, UniProt P01903+P13762, G164S).
T2 construct: made in house; host or cells: EBV-transformed homozygous human B cell lines, transfected fibroblasts or single-allele 721.221 transfectants
Put plainly: biochemical. The following applies: IC50 nM to purified HLA DRB4*0101. The class given is binding.

The mark [1] stands for this setting: IFNγ ELISPOT, five day expansion with peptide pool, CD8-depleted.

Where two headings read alike, the source gives them in different places.

Regarding `CC[C@H](C)[C@H](NC(=O)CNC(=O)[C@@H](N)CCCCN)C(=O)N[C@@H](CC(C)C)C(=O)NCC(=O)N[C@@H](Cc1ccccc1)C(=O)N[C@H](C(=O)N[C@@H](Cc1ccccc1)C(=O)N[C@H](C(=O)N[C@@H](CC(C)C)C(=O)N[C@H](C(=O)N[C@H](C(=O)N1CCC[C@H]1C(=O)N[C@@H](CO)C(=O)N[C@@H](CCC(=O)O)C(=O)O)C(C)C)[C@@H](C)O)[C@@H](C)O)C(C)C` [Flu.M1.60], in the test on CD4+ PBMC, the “Human influenza epitope-specific immune response, donor 753” value is listed as “Positive (key: Positive: Donors were considered positive for a peptide if the number of spots was over 3 times background as determined by responses to irrelevant peptides (non influenza))”; the “Human influenza epitope-specific immune response, donor 6018” value is given as “Positive (key: Positive: Donors were considered positive for a peptide if the number of spots was over 3 times background as determined by responses to irrelevant peptides (non influenza))”; the “Human influenza epitope-specific immune response, donor AC02” value is listed as “Positive (key: Positive: Donors were considered positive for a peptide if the number of spots was over 3 times background as determined by responses to irrelevant peptides (non influenza))”; the “Human influenza epitope-specific immune response, donor AC08” value is given as “Positive (key: Positive: Donors were considered positive for a peptide if the number of spots was over 3 times background as determined by responses to irrelevant peptides (non influenza))”.

As to `CC[C@H](C)[C@H](NC(=O)[C@H](CCC(=O)O)NC(=O)[C@H](CCCNC(=N)N)NC(=O)[C@H](CCCCN)NC(=O)[C@H](CC(C)C)NC(=O)[C@H](CCCCN)NC(=O)[C@H](CCCNC(=N)N)NC(=O)[C@@H](N)Cc1ccc(O)cc1)C(=O)N[C@H](C(=O)N[C@@H](Cc1ccccc1)C(=O)N[C@@H](Cc1c[nH]cn1)C(=O)NCC(=O)N[C@@H](C)C(=O)N[C@@H](CCCCN)C(=O)N[C@@H](CCC(=O)O)C(=O)O)[C@@H](C)O` [Flu.M1.103], in the test with CD4+ PBMC (setting [1]), the “Human influenza epitope-specific immune response, donor 716” value was “Positive (Donors were considered positive for a peptide if the number of spots was over 3 times background as determined by responses to irrelevant peptides (non influenza))” and the “Human influenza epitope-specific immune response, donor AC08” value was “Positive (Donors were considered positive for a peptide if the number of spots was over 3 times background as determined by responses to irrelevant peptides (non influenza))”.

As for `CC[C@H](C)[C@H](NC(=O)[C@H](CC(C)C)NC(=O)[C@@H]1CCCN1C(=O)[C@@H](N)CC(N)=O)C(=O)N[C@@H](CCCNC(=N)N)C(=O)N[C@@H](Cc1c[nH]cn1)C(=O)N[C@@H](CCC(=O)O)C(=O)N[C@@H](CC(N)=O)C(=O)N[C@@H](CCCNC(=N)N)C(=O)N[C@@H](CCSC)C(=O)N[C@H](C(=O)N[C@@H](CC(C)C)C(=O)N[C@@H](C)C(=O)N[C@@H](CO)C(=O)N[C@H](C(=O)O)[C@@H](C)O)C(C)C` [Flu.M1.173], in the test on CD4+ PBMC (setting [1]), the “Human influenza epitope-specific immune response, donor AC02” value is “Positive (Donors were considered positive for a peptide if the number of spots was over 3 times background as determined by responses to irrelevant peptides (non influenza))”.

In the case of `CSCC[C@H](NC(=O)[C@H](C)NC(=O)[C@H](CCC(N)=O)NC(=O)[C@@H](NC(=O)[C@H](CCSC)NC(=O)[C@H](CCC(N)=O)NC(=O)[C@H](CCCNC(=N)N)NC(=O)[C@H](C)NC(=O)[C@H](CCC(N)=O)NC(=O)[C@H](CO)NC(=O)[C@H](C)NC(=O)[C@@H](NC(=O)[C@H](CCC(=O)O)NC(=O)[C@H](CCSC)NC(=O)[C@H](C)N)C(C)C)C(C)C)C(=O)O` [Flu.M1.205], in the test with CD4+ PBMC (setting [1]), the “Human influenza epitope-specific immune response, donor 6018” value was “Positive (Donors were considered positive for a peptide if the number of spots was over 3 times background as determined by responses to irrelevant peptides (non influenza))” and the “Human influenza epitope-specific immune response, donor AC02” value was “Positive (Donors were considered positive for a peptide if the number of spots was over 3 times background as determined by responses to irrelevant peptides (non influenza))”.

Consider `CSCC[C@H](NC(=O)[C@H](Cc1c[nH]c2ccccc12)NC(=O)[C@@H](NC(=O)[C@H](CC(C)C)NC(=O)[C@H](CCC(N)=O)NC(=O)[C@H](CO)NC(=O)[C@@H](N)CCCCN)C(C)C)C(=O)N[C@@H](C)C(=O)N[C@@H](CS)C(=O)N[C@@H](Cc1c[nH]cn1)C(=O)N[C@@H](CO)C(=O)N[C@@H](C)C(=O)N[C@@H](C)C(=O)N[C@@H](Cc1ccccc1)C(=O)N[C@@H](CCC(=O)O)C(=O)O` [Flu.NF.328], for which the “Human influenza epitope-specific immune response, donor 753” value in the test on CD4+ PBMC (setting [1]) was “Positive (Donors were considered positive for a peptide if the number of spots was over 3 times background as determined by responses to irrelevant peptides (non influenza))”.

With `CC[C@H](C)[C@H](NC(=O)[C@H](CC(C)C)NC(=O)[C@H](CCC(=O)O)NC(=O)[C@H](CCSC)NC(=O)[C@@H](NC(=O)[C@H](CCSC)NC(=O)[C@@H](NC(=O)CNC(=O)[C@@H](N)C(C)C)[C@@H](C)O)C(C)C)C(=O)N[C@@H](CCCNC(=N)N)C(=O)N[C@@H](CCSC)C(=O)N[C@H](C(=O)N[C@@H](CCCCN)C(=O)N[C@@H](CCCNC(=N)N)C(=O)NCC(=O)O)[C@@H](C)CC` [Flu.NP.189], in the test on CD4+ PBMC (setting [1]), the “Human influenza epitope-specific immune response, donor 753” value was “Positive (Donors were considered positive for a peptide if the number of spots was over 3 times background as determined by responses to irrelevant peptides (non influenza))”; the “Human influenza epitope-specific immune response, donor 6018” value is on record as “Positive (Donors were considered positive for a peptide if the number of spots was over 3 times background as determined by responses to irrelevant peptides (non influenza))”; the “Human influenza epitope-specific immune response, donor AC08” value was “Positive (Donors were considered positive for a peptide if the number of spots was over 3 times background as determined by responses to irrelevant peptides (non influenza))”.

`CC[C@H](C)[C@H](NC(=O)[C@H](CC(C)C)NC(=O)[C@H](C)NC(=O)[C@H](CO)NC(=O)[C@H](CCCNC(=N)N)NC(=O)[C@H](C)NC(=O)[C@H](CC(C)C)NC(=O)[C@H](Cc1ccccc1)NC(=O)[C@@H](NC(=O)[C@H](CC(C)C)NC(=O)[C@@H](N)CC(=O)O)[C@@H](C)CC)C(=O)N[C@@H](CC(C)C)C(=O)N[C@@H](CCCNC(=N)N)C(=O)NCC(=O)N[C@@H](CO)C(=O)O` [Flu.NP.258]: in the test on CD4+ PBMC (setting [1]), the “Human influenza epitope-specific immune response, donor 6018” value is given as “Positive (Donors were considered positive for a peptide if the number of spots was over 3 times background as determined by responses to irrelevant peptides (non influenza))”.

`CC[C@H](C)[C@H](NC(=O)[C@H](CCC(N)=O)NC(=O)CNC(=O)[C@H](C)N)C(=O)N[C@@H](CO)C(=O)N[C@H](C(=O)N[C@@H](CCC(N)=O)C(=O)N1CCC[C@H]1C(=O)N[C@H](C(=O)N[C@@H](Cc1ccccc1)C(=O)N[C@@H](CO)C(=O)N[C@H](C(=O)N[C@@H](CCC(N)=O)C(=O)N[C@@H](CCCNC(=N)N)C(=O)N[C@@H](CC(N)=O)C(=O)O)C(C)C)[C@@H](C)O)C(C)C` [Flu.NP.406]: the “Human influenza epitope-specific immune response, donor 3501” value in the test on CD4+ PBMC (IFNγ ELISPOT, CD8-depleted) is “Positive (Donors were considered positive for a peptide if the number of spots was over 3 times background as determined by responses to irrelevant peptides (non influenza))”.

For the compound `CSCC[C@H](NC(=O)CNC(=O)[C@H](CCSC)NC(=O)[C@@H](N)CCSC)C(=O)N[C@@H](Cc1ccccc1)C(=O)N[C@@H](CC(N)=O)C(=O)N[C@@H](CCSC)C(=O)N[C@@H](CC(C)C)C(=O)N[C@@H](CO)C(=O)N[C@H](C(=O)N[C@H](C(=O)N[C@@H](CC(C)C)C(=O)NCC(=O)N[C@H](C(=O)N[C@@H](CO)C(=O)O)C(C)C)C(C)C)[C@@H](C)O` [Flu.PB1.411], the “Human influenza epitope-specific immune response, donor 3501” value with CD4+ PBMC (IFNγ ELISPOT, CD8-depleted) is reported as “Positive (Donors were considered positive for a peptide if the number of spots was over 3 times background as determined by responses to irrelevant peptides (non influenza))”. For the same compound, in the test with CD4+ PBMC (setting [1]), the “Human influenza epitope-specific immune response, donor 716” value is given as “Positive (Donors were considered positive for a peptide if the number of spots was over 3 times background as determined by responses to irrelevant peptides (non influenza))”; the “Human influenza epitope-specific immune response, donor 753” value is “Positive (Donors were considered positive for a peptide if the number of spots was over 3 times background as determined by responses to irrelevant peptides (non influenza))”; the “Human influenza epitope-specific immune response, donor 6018” value was “Positive (Donors were considered positive for a peptide if the number of spots was over 3 times background as determined by responses to irrelevant peptides (non influenza))”.

`CC[C@H](C)[C@H](NC(=O)CNC(=O)[C@H](CCC(=O)O)NC(=O)[C@H](Cc1c[nH]cn1)NC(=O)[C@H](CC(N)=O)NC(=O)[C@@H]1CCCN1C(=O)[C@H](C)NC(=O)[C@H](CC(N)=O)NC(=O)[C@@H](NC(=O)[C@@H](NC(=O)[C@H](CC(C)C)NC(=O)[C@H](C)NC(=O)[C@H](Cc1ccccc1)NC(=O)[C@@H](N)CC(=O)O)[C@@H](C)CC)C(C)C)C(=O)N[C@@H](CCC(N)=O)C(=O)O` [Flu.PB1.449]: in the test with CD4+ PBMC (IFNγ ELISPOT, CD8-depleted), the “Human influenza epitope-specific immune response, donor 3501” value is “Positive (Donors were considered positive for a peptide if the number of spots was over 3 times background as determined by responses to irrelevant peptides (non influenza))”.

Turning to `CC[C@H](C)[C@H](NC(=O)CNC(=O)[C@H](CO)NC(=O)[C@@H](NC(=O)CNC(=O)[C@H](Cc1ccccc1)NC(=O)[C@H](CO)NC(=O)[C@@H]1CCCN1C(=O)[C@@H](N)CC(C)C)C(C)C)C(=O)N[C@@H](CC(N)=O)C(=O)N[C@@H](CCC(=O)O)C(=O)N[C@@H](CO)C(=O)N[C@@H](C)C(=O)N[C@@H](CC(=O)O)C(=O)N[C@@H](CCSC)C(=O)O` [Flu.PB1.512], the IC50 against DRB1*0404 is 39 nM; on DRB1*0401, 44 nM; against DRB4*0101, 48 nM.
